Experimental data: paper PMC6300282, “Sulphamethazine derivatives as immunomodulating agents: New therapeutic strategies for inflammatory diseases” (PLoS ONE, 2018)
pIC50: −log10 of the molar value.

Key:
[1] = tested on: mouse fibroblast NIH-3T3 cell line; assay: MTT cytotoxicity assay; format: cell-based; settings: MTT, 48 hours
Method: (§1) The cytotoxicity was recorded as concentration causing 50% growth inhibition (IC50).

[2] = tested on: Staphylococcus aureus (ATCC 25923); assay: Microplate Alamar Blue Assay, Staphylococcus aureus; format: cell-based; settings: 200 μg/mL, NI = No inhibition
Method: (§2) The anti-bacterial activity of synthesized compound were evaluated by the Microplate Alamar Blue Assay. Staphylococcus aureus (ATCC 25923), Pseudomonas aeruginosa(POA 286), Salmonella typhi (ATCC 14028), Bacillus subtilis ATCC 6633) and Escherichia coli (ATCC 12022) were used in this study as a standard bacterial strains and they were obtained from microbial bank of PCMD, International Center for Chemical and Biological Sciences, University of Karachi, Karachi-75270, Pakistan. The bacterial colonies grown in Trypton Soya Agar (TSA) (Oxoid Limited, UK) were inoculated in Mueller Hinton Broth (MHB) (Oxoid Limited, UK) and incubated overnight at 37 °C. Fully grown bacterial cultures were then diluted to adjust with 0.5 McFarland Turbidity Index (equivalent to 1.5 × 10^8 CFU/mL). Stock solutions (4 mg/mL) of different test compounds were prepared in DMSO and 10μL each of these stock solutions were placed in well of flat bottom, polystyrene, sterile 96-wells plate except the positive control wells (media + bacteria). This gives 200μg/mL concentrations of compounds in final 200 μL solution. Each compound was run in triplicates. Finally, bacterial suspension (5 x 10^6 CFU/mL) was added in each well. Plates were sealed by parafilm and incubated at 37 °C for 18–22 hrs. Next day, 20 μL of 0.02% resazurin sodium salt dye (Chem-Impex-Int’LInc) was added in each well and incubated in shaking incubator at 80 rpm, 37 °C for 2–3 hrs. The color change from blue to reddish pink indicates the growth of bacteria. For quantitative analysis, plates were read at 570 nm and 600 nm in Multiskan GOmicroplate spectrophotometer, (Thermo Scientific, USA). The % inhibition of bacterial growth was calculated using below mentioned formula.
(§3) For the calculation of the % difference in reduction between treated and control cells in cytotoxicity/proliferation assays: =(εOX)λ2Aλ1-(εOX)λ1Aλ2oftestagent/(εOX)λ2A°λ1-(εOX)λ1A°λ2ofpositivegrowthcontrol×100

[3] = tested on: Pseudomonas aeruginosa (POA 286); assay: Microplate Alamar Blue Assay, Pseudomonas aeruginosa; format: cell-based; settings: 200 μg/mL, NI = No inhibition
Method: as §2, §3

[4] = tested on: Salmonella typhi (ATCC 14028); assay: Microplate Alamar Blue Assay, Salmonella typhi; format: cell-based; settings: 200 μg/mL, NI = No inhibition
Method: as §2, §3

MTT cytotoxicity assay = format: cell-based, mouse; settings: mouse; MTT, 48 hours; read-out: Cytotoxicity NIH-3T3 cell line (IC50)
Method: as §1

[5] = tested on: Bacillus subtilis (ATCC 6633); assay: Microplate Alamar Blue Assay, Bacillus subtilis; format: cell-based; settings: ATCC6633, 200 μg/mL, NI = No inhibition, read-out: Percentage (%) Inhibition, Bacillus subtilis
Method: as §2, §3

[6] = tested on: Escherichia coli (ATCC 12022); assay: Microplate Alamar Blue Assay, Escherichia coli; format: cell-based; settings: ATCC12022, 200 μg/mL, NI = No inhibition, read-out: Percentage (%) Inhibition, Escherichia coli
Method: as §2, §3

Structure (SMILES) | pIC50 [1] | Percentage (%) Inhibition, Staphylococcus aureus [2] [%] | Percentage (%) Inhibition, Pseudomonas aerugenosa [3] [%] | Percentage (%) Inhibition, Slamonella typhi [4] [%] | pIC50 (MTT cytotoxicity assay) | inhibition at 200 µg/mL [5] [%] | inhibition at 200 µg/mL ([2]; Staphylococcus aureus, ATCC25923, read-out: Percentage (%) Inhibition, Staphylococcus aureus) [%] | inhibition at 200 µg/mL [6] [%] | inhibition at 200 µg/mL ([3]; Pseudomonas aeruginosa, read-out: Percentage (%) Inhibition, Pseudomonas aerugenosa) [%] | inhibition at 200 µg/mL ([4]; Salmonella enterica, read-out: Percentage (%) Inhibition, Slamonella typhi) [%] | melting point [°C]
Cc1cc(C)nc(NS(=O)(=O)c2ccc(NC(=O)c3cccc(C(F)(F)F)c3)cc2)n1 [Compound 20] | < 4.52 | 30.78 | 1.66 | 9.30 | – | – | – | – | – | – | –
Cc1cc(C)nc(NS(=O)(=O)c2ccc(NC(=O)C34CCC(C)(C(=O)O3)C4(C)C)cc2)n1 (centres unmarked) [Compound 15, N-(4-(N-(4,6-dimethylpyrimidin-2-yl)sulfamoyl)phenyl)-4,7,7-trimethyl-3-oxo-2-oxabicyclo[2.2.1]heptane-1-carboxamide] | – | – | – | – | < 4.52 | 38.4 | 14.1 | < 0 | 29.4 | 29.3 | 254 to 256
